Test results: paper PMC10694292, “Increased sinusoidal export of drug glucuronides is a compensative mechanism in liver cirrhosis of mice” (Frontiers in Pharmacology, 2023)
Converted amounts (≈) assume the structure as drawn. Where two headings read alike, the source gives them in different places.

Key:
[1] = cited from earlier work
[2] = human, cited from earlier work
[3] = optimized (mouse); ref Schenk et al., 2017; cited from earlier work
[4] = Drug cocktail i.v. in mice: 24 h urine, fraction of dose excreted; settings: for Mean fraction of dose excreted to urine: mice, after drug cocktail administration; for Fraction of dose in urine (24 h), cirrhotic vs control mice: i.v. drug cocktail
[5] = optimized, human; ref Krauss et al., 2017; cited from earlier work
[6] = humans, after a single oral dose; ref Knauf and Mutschler, 1998; FDA, 2017; cited from earlier work
[7] = Drug cocktail i.v. in mice: 2 h bile, fraction of dose excreted; settings: mice, 2 h after drug administration
[8] = Drug cocktail i.v. in CCl4-cirrhotic and control mice: plasma concentrations and AUC; settings: for Phase I metabolite in blood (formation), cirrhotic vs control, experimental data: i.v. drug cocktail; for Measured plasma concentrations in cirrhotic mice vs PBPK-predicted concentrations: 15-120 min after cocktail, prediction with CYP activity at 11%
[9] = Chronic CCl4 treatment (12 months): blood chemistry and bile acids; format: in vivo, mice
Procedure: Male C57 Black 6/N 8–10-week-old mice were used (Janvier Labs, France). The mice were housed under standard environmental conditions with ad libitum feeding on a normal rodent diet (Ssniff, Soest, Germany) and with free access to water. To induce chronic liver damage, the mice were treated repeatedly with carbon tetrachloride (CCl4, 1 G/kg intraperitoneal) twice per week for 12 months ([Ghallab et al., 2019b]; [Holland et al., 2022]). The control mice received the vehicle only (olive oil, application volume 4 mL/kg intraperitoneal). On day 6, after the last CCl4/oil injection, blood as well as liver tissue samples were collected, as previously described ([Ghallab et al., 2016]). All experiments were approved by the local animal protection authorities (application number: 84-02.04.2017. A177).
ALT, AST, and ALP activities as well as albumin concentrations of plasma samples were measured with a 1:1 dilution in PBS using a Piccolo Xpress® chemistry analyzer and General Chemistry 13 panels (Hitado, Möhnesee, Germany).
Plasma concentrations of bile acids were analyzed using negative electrospray (ESI) liquid chromatography-tandem mass spectrometry (LC-MS/MS), as previously described ([Ghallab et al., 2022]).

[10] = mouse, in vivo
[11] = rat, measured; ref Bortolotti et al., 1985; cited from earlier work
[12] = DrugBank, predicted AlogPS, ref Wishart et al., 2017
[13] = DrugBank, predicted ChemAxon, ref Wishart et al., 2017
[14] = predicted ACD, ref Nguyen et al., 2016
[15] = predicted, ref Wishart et al., 2017
[16] = experimental (morphine: logP uncharged), ref Avdeef, 1996
[17] = experimental, ref Vree and Verwey-van Wissen

OCc1ncc2n1-c1ccc(Cl)cc1C(c1ccccc1F)=NC2 [OH-MDZ, 1-hydroxymidazolam]
Lipophilicity [1, 12]: 3.09
Solubility [1, 12]: 25.4 µg/mL (≈ 0.0743 mM)
Lipophilicity [1, 13]: 2.48
Lipophilicity [1, 14]: 2.5
pKa, ampholyte, first value [1, 14]: 3.63
pKa, ampholyte, second value [1, 14]: 13.6
pKa, ampholyte, first value [1, 15]: 4.99
pKa, ampholyte, second value [1, 15]: 13.95
Lipophilicity ([1]; ref Vossen et al., 2007): 2.6
Fraction unbound ([2]; measured, ref Nguyen et al., 2016): 0.15
Fraction unbound [3]: 0.01
Mean fraction of dose excreted to urine [4]: below 1%

CC(C)NC(=O)NS(=O)(=O)c1cnccc1Nc1cccc(CO)c1 [OH-torsemide, hydroxy torsemide]
Fraction unbound [5]: 0.00191
Lipophilicity [1, 12]: 0.86
Solubility [1, 12]: 89.8 µg/mL (≈ 0.246 mM)
Lipophilicity [1, 13]: 0.49
Lipophilicity ([1]; optimized (mouse), ref Schenk et al., 2017): 0.75
Lipophilicity ([1]; optimized, human, ref Krauss et al., 2017): 2.139
Recovered from urine [6]: about 10%
Mean fraction of dose excreted to bile [7]: 0.8%
Mean fraction of dose excreted to urine [4]: 11%
Phase I metabolite in blood (formation), cirrhotic vs control, experimental data [8]: decreased formation

ClC(Cl)(Cl)Cl [CCl4, carbon tetrachloride]
Plasma ALT ([9]; CCl4 1 g/kg i.p. twice per week, 12 months, vs oil): increased
ALP ([9]; CCl4 12 months vs oil): no significant changes
Albumin ([9]; CCl4 12 months vs oil): no significant changes
Plasma AST ([9]; CCl4 12 months vs oil): increased
Serum bile acid levels ([9]; CCl4 12 months vs oil): increased

COc1ccc2c3c1O[C@H]1[C@@H](O)C=C[C@H]4[C@@H](C2)N(C)CC[C@@]341 [Codeine, codeine]
Lipophilicity ([1]; DrugBank, experimental, ref Wishart et al., 2017): 1.39
Lipophilicity [1, 16]: 1.19
Fraction unbound ([2]; DrugBank, ref Wishart et al., 2017): 0.75
Fraction unbound [2, 17]: 0.44
Mean fraction of dose excreted to bile [7]: below 1%
Mean fraction of dose excreted to urine [4]: 3%
Measured plasma concentrations of parent compound in cirrhotic mice ([8]; accompanying increased glucuronides): decreased

Cn1c(=O)[nH]c2ncn(C)c2c1=O [Paraxanthine, 1,7-Dimethylxanthine]
Mean fraction of dose excreted to urine [10]: 2%
Solubility ([1]; DrugBank, AlogPS prediction, ref Wishart et al., 2017): 9130 µg/mL (≈ 50.7 mM)
Lipophilicity [1, 12]: -0.63
Lipophilicity [1, 13]: 0.27
pKa ([1]; ref FooDB): Neutral
Fraction unbound ([2]; measured, ref Lelo et al., 1986): 0.56
Fraction unbound [11]: 0.85

CN1CC[C@]23c4c5ccc(O)c4O[C@H]2[C@@H](O)C=C[C@H]3[C@H]1C5 [Morphine, morphine]
Mean fraction of dose excreted to urine [4]: 1%

COc1ccc2c3c1O[C@H]1[C@@H](O[C@@H]4O[C@H](C(=O)O)[C@@H](O)[C@H](O)[C@H]4O)C=C[C@H]4[C@@H](C2)N(C)CC[C@@]341 [C6G, codeine-6-glucuronide]
Lipophilicity [1, 12]: -0.23
Solubility [1, 12]: 4310 µg/mL (≈ 9.06 mM)
Lipophilicity [1, 13]: -2.8
Fraction unbound [2, 17]: 0.44
Fraction of dose in urine (24 h), cirrhotic vs control mice [4]: higher
Mean fraction of dose excreted to urine [4]: 1%
Measured plasma concentrations in cirrhotic mice vs PBPK-predicted concentrations [8]: much higher

COc1ccc2c3c1O[C@H]1[C@@H](O)C=C[C@H]4[C@@H](C2)NCC[C@@]341 [Norcodeine, norcodeine]
Lipophilicity [1, 12]: 0.99
Lipophilicity [1, 13]: 0.96
Lipophilicity [1, 16]: 0.69
pKa (Base) ([1]; ref Avdeef, 1996): 9.22
Fraction unbound [2, 17]: 0.765
Mean fraction of dose excreted to urine [4]: 3%
Phase I metabolite in blood (formation), cirrhotic vs control, experimental data [8]: reduced formation

O=C(O)[C@H]1O[C@@H](OCc2ncc3n2-c2ccc(Cl)cc2C(c2ccccc2F)=NC3)[C@H](O)[C@@H](O)[C@@H]1O [OH-MDZ-G, 1-hydroxymidazolam glucuronide]
Lipophilicity ([1]; ref Vossen et al., 2007): 1.4
Mean fraction of dose excreted to bile [7]: 1.2%
Fraction of dose in urine (24 h), cirrhotic vs control mice [4]: higher
Measured plasma concentrations in cirrhotic mice vs PBPK-predicted concentrations [8]: much higher
